Laboratory results from patent US12534439B2, “Xanthohumol derivatives and methods for making and using” (Oregon State University, priority 2021, dated 2026).
Like-named read-outs stand apart in the source and are kept apart here.

Assay: Quantification of XP and XN in plasma and cortex by UPLC-MS with or without glucuronidase digestion
Type: in vivo, mice
Details: for concentration at 11 weeks: C57BL/6J, mouse, without glucuronidase digestion, daily oral XP 30, XN 60 mg/kg body weight, mean ± SEM
Procedure: Quantification of XP and XN. For plasma extractions, ascorbic acid (5 μL, 10% m/m water, Sigma-Aldrich, St Louis, MO, USA) was added to 40 μL of plasma. For tissue extractions, 20 mg of cortex was extracted with 200 μL of 50% methanol in water and 10 μL of ascorbic acid (10% m/m water). Samples were incubated with or without 10 μL of glucuronidase (20 mg/mL, Sigma-Aldrich, St Louis, MO, USA) for 3 hours at 37° C. The samples were extracted with 200 μL of acetonitrile containing 100 ng/mL of [13C3]-XN. The supernatant was transferred to a new tube and vacuum-dried, and the pellet was reconstituted in 100 μL of 50% methanol in water. UPLC-MS was performed using a hybrid triple quadrupole linear ion trap mass spectrometer (4000 QTRAP, AB SCIEX, Toronto, Canada). The elution profile was set as follows: 5% B from 0 to 0.5 min, 5 to 100% B from 0.5 to 3 minutes, 1 minute hold at 100% B, followed by re-equilibration of the HPLC column at 5% B for 2 minutes. Selected reaction monitoring transitions used for quantification were m/z 353.1>119.1 for XN, m/z 379.3>321.3 for XP, and m/z 356.1>120.1 for the [13C3]-XN internal standard.
For plasma extractions, ascorbic acid (5 μL, 10% m/m water, Sigma Aldrich, St Louis, MO, USA) was added to 40 μL of plasma. Samples were incubated with or without 10 μL glucuronidase (20 mg/mL, Sigma Aldrich, St Louis, MO, USA) for 3 hr at 37° C. Samples were extracted with 200 μL of acetonitrile containing 100 ng/mL [^13C3]—XN^1. The supernatant was transferred to a new tube, vacuum-dried and the pellet was reconstituted in 100 μL of 50% methanol in water. UPLC-MS was performed using a hybrid triple quadrupole linear ion trap mass spectrometer (4000 QTRAP, AB SCIEX, Toronto, Canada) as previously reported with some modifications. The elution profile was set as follows: 5% solvent B from 0 to 0.5 minute, 5% to 100% B from 0.5-3 minutes, 1 minute hold at 100% B followed by re-equilibration of the HPLC column at 5% B for 2 minutes. Selected Reaction Monitoring transitions used for quantification were m/z 353.1>119.1 for XN, m/z 379.3>321.3 for XP and m/z 356.1>120.1 for [^13C3]—XN internal standard. XP and XN concentrations were calculated by the external calibration method using calibration curves constructed from pure XP and XN standards.

[1] = cortex, read-out: CORTEX concentration, Non-glucuronidated
[2] = plasma, read-out: PLASMA concentration, Non-glucuronidated

With `COc1cc(O)c(CC=C(C)C)c(O)c1C(=O)/C=C/c1ccc(O)cc1` [XN, xanthohumol] the concentration at 11 weeks [1] was 59.7 ± 16.8 ng/g and the concentration at 11 weeks [2] was 13.2 ± 3.07 ng/mL.

For `COc1cc(O)c(CC=C(C)C)c(O)c1-c1cc(-c2ccc(O)cc2)n(C)n1` [XP, 4-(5-(4-hydroxyphenyl)-1-methyl-1H-pyrazol-3-yl)-5-methoxy-2-(3-methylbut-2-en-1-yl)benzene-1,3-diol], the concentration at 11 weeks [1] was 40.1 ± 2.8 ng/g, the concentration at 11 weeks [2] was 43.5 ± 3.54 ng/mL and the “Phase 1 metabolism” value (plasma of treated mice) was “resistant to phase 1 metabolism”. The “Metabolites detected in plasma” value (plasma of treated mice, mass spectrometric analysis) was “XP-glucuronide was the only metabolite”.
